Results as given in patent US20160046604A1, “HETEROARYL SUBSTITUTED INDAZOLES” (BAYER PHARMA AKTIENGESELLSCHAFT, priority 2013, published 2016).

Assays:
[1] = target: T1, catalytic domain of human Bub1 (amino acids 704-1085) (Homo sapiens, UniProt O43683); assay: Bub1 kinase assay (TR-FRET); assay type: biochemical
T1 construct: catalytic domain of human Bub1 (amino acids 704-1085); His6 (N); made in house; host or cells: Hi5 insect cells
Description: To this end, 100-fold concentrated compound solutions (in DMSO) were previously prepared by serial dilution (1:3.4) of 2 mM stocks in a clear low volume 384-well source microtiter plate (Greiner Bio-One, Frickenhausen, Germany), from which 50 nL of compounds were transferred into a black low volume test microtiter plate from the same supplier. […] The resulting mixture (5 μL final volume) was incubated at 22° C. during 60 min., and the reaction was stopped by the addition of 5 μL of an aqueous EDTA-solution (50 mM EDTA, in 100 mM HEPES pH 7.5 and 0.2% (w/v) bovine serum albumin) which also contained the TR-FRET detection reagents (0.2 μM streptavidin-XL665 [Cisbio Bioassays, Codolet, France] and 1 nM anti-phoshoSerine antibody [Merck Millipore, cat. #35-001] and 0.4 nM LANCE EU-W1024 labeled anti-mouse IgG antibody [Perkin-Elmer, product no. AD0077, alternatively a Terbium-cryptate-labeled anti-mouse IgG antibody from Cisbio Bioassays can be used]). The stopped reaction mixture was further incubated 1 h at 22° C. in order to allow the formation of complexes between peptides and detection reagents. Subsequently, the amount of product was evaluated by measurement of the resonance energy transfer from the Eu-chelate-antibody complex recognizing the Phosphoserine residue to the streptavidin-XL665 bound to the biotin moiety of the peptide. […] IC50 values were calculated by fitting the normalized inhibition data to a 4-parameter logistic equation (Minimum, Maximum, IC50, Hill; Y=Max+(Min−Max)/(1+(X/IC50)Hill)).

[2] = tested on: HeLa human cervical tumor cells; assay: Proliferation assay (HeLa cell line); conditions: 96 h, read-out: Biological Assay 2: Proliferation assay (HeLa cell line) median IC50;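 further: crystal violet staining, absorbance at 595 nm, 0.001–10 µM test range, 4-day exposure, 0% is cell number at dosing and 100% untreated growth, IC50 from 4-parameter fit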
Description: Cultivated HeLa human cervical tumor cells (cells were ordered from ATCC CCL-2) were plated at a density of 3000 cells/well in a 96-well multititer plates in 200 microL DMEM/HAMS F12 culture medium (Biochrom F4815) supplemented with 10% fetal calf serum. After 24 hours, the cells of one plate (zero-point plate) were stained with crystal violet (see below), while the medium of the other plates was replaced by fresh culture medium (200 microL) containing the test substances in various concentrations (0 microM, as well as in the range of 0.001-10 microM; the final concentration of the solvent dimethyl sulfoxide was 0.5%). The cells were incubated for 4 days in the presence of test substances. Cell proliferation was determined by staining the cells with crystal violet: the cells were fixed by adding 20 microL/measuring point of an 11% glutaric aldehyde solution for 15 minutes at room temperature. After three washing cycles of the fixed cells with water, the plates were dried at room temperature. The cells were stained by adding 100 microL/measuring point of a 0.1% crystal violet solution (pH 3.0). After three washing cycles of the stained cells with water, the plates were dried at room temperature. The dye was dissolved by adding 100 microL/measuring point of a 10% acetic acid solution. Absorption was determined by photometry at a wavelength of 595 nm. The change of cell number, in percent, was calculated by normalization of the measured values to the absorption values of the zero-point plate (=0%) and the absorption of the untreated (0 microM) cells (=100%). The IC50 values were determined by means of a 4 parameter fit.

T1 sequence (O43683 704-1085): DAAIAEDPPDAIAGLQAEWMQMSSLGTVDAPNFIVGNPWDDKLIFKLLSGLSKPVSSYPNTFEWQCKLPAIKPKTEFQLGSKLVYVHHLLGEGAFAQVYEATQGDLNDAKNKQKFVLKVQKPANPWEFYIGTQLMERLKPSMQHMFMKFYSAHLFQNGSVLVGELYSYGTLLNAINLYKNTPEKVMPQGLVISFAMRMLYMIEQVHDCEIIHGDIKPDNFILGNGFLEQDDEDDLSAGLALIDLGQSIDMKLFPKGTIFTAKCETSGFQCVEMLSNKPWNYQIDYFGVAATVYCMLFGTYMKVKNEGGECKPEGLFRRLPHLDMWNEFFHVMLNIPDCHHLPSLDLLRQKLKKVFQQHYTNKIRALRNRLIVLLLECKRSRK

| IC50 [1] [nM] | IC50 [2] [nM] | SMILES |
| --- | --- | --- |
| 16 | 6700 | Cc1noc(C)c1Cn1nc(-c2nc(N)cc(Nc3ccncc3)n2)c2ccccc21 [Example 2-3-2, 2-{1-[(3,5-dimethyl-1,2-oxazol-4-yl)methyl]-1H-indazol-3-yl}-N-(pyridin-4-yl)pyrimidine-4,6-diamine] |
| 31 | 650 | Cc1noc(C)c1Cn1nc(-c2nc(N)cc(Nc3ccncn3)n2)c2ccccc21 [Example 2-3-3, 2-{1-[(3,5-dimethyl-1,2-oxazol-4-yl)methyl]-1H-indazol-3-yl}-N-(pyrimidin-4-yl)pyrimidine-4,6-diamine] |
| 330 | 4000 | Cc1noc(C)c1Cn1nc(-c2nc(Nc3ccncc3)cc(Nc3ccncc3)n2)c2ccccc21 [Example 2-3-4, 2-{1-[(3,5-dimethyl-1,2-oxazol-4-yl)methyl]-1H-indazol-3-yl}-N,N′-di(pyridin-4-yl)pyrimidine-4,6-diamine] |
| 150 | > 10000 | Cc1noc(C)c1Cn1nc(-c2nc(Nc3ccncn3)cc(Nc3ccncn3)n2)c2ccccc21 [Example 2-3-5, 2-{1-[(3,5-dimethyl-1,2-oxazol-4-yl)methyl]-1H-indazol-3-yl}-N,N′-di(pyrimidin-4-yl)pyrimidine-4,6-diamine] |
